Results taken from patent US20040209915A1, “Library of biphenyl derivatives” (priority 2003, published 2004).

Columns and labels:
[1] = target: T1, human β2 adrenergic receptor (Homo sapiens, UniProt P07550); test: Radioligand binding assay for human β2 adrenergic receptor; details: displacement of [3H]-dihydroalprenolol, CHO cell membranes
T1 construct: expressed in transfected cells

M3 muscarinic receptor = target: T2, M3 muscarinic receptor (Homo sapiens, UniProt P20309); test: Radioligand binding assay for muscarinic receptors; details: displacement of [3H]-NMS, CHO cell membranes
T2 construct: expressed in transfected cells
T2 sequence (P20309 whole entry): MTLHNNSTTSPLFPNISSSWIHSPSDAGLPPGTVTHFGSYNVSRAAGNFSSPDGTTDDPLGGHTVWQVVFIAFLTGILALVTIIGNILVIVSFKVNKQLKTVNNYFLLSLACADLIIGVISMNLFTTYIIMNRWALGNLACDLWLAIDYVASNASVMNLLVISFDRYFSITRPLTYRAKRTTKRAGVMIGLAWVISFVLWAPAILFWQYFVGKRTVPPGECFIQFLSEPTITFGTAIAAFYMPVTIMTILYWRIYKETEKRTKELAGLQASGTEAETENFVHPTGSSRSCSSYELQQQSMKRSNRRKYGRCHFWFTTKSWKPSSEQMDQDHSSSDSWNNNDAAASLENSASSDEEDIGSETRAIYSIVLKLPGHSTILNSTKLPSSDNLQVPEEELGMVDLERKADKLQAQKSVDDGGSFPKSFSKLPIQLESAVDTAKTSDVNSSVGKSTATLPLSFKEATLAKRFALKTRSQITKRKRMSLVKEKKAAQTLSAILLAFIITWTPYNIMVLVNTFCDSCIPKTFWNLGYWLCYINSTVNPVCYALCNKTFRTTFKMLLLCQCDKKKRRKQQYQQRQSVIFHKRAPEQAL
Description: CHO cell lines stably expressing cloned human hM1, hM2, hM3 and hM4 muscarinic receptor subtypes, respectively, were grown to near confluency in HAM's F-12 media supplemented with 10% FBS and 250 μg/mL Geneticin. The cells were grown in a 5% CO2, 37° C. incubator and lifted with 2 mM EDTA in dPBS. […] For membrane preparation, cell pellets were resuspended in lysis buffer and homogenized with a Polytron PT-2100 tissue disrupter (Kinematica AG; 20 seconds×2 bursts). Crude membranes were centrifuged at 40,000×g for 15 minutes at 4° C. The membrane pellet was then resuspended with resuspension buffer and homogenized again with the Polytron tissue disrupter.

[2] = target: T1, human β2 adrenergic receptor; test: Whole-cell cAMP Flashplate assay in CHO cell lines heterologously expressing human β2 adrenergic receptor; type: cell-based; details: CHO-K1 cells
Description: Cells were rinsed with PBS and detached in dPBS (Dulbecco's Phosphate Buffered Saline, without CaCl2 and MgCl2) containing 2 mM EDTA or Trypsin-EDTA solution (0.05% trypsin/0.53 mM EDTA). […] About 60,000 to 80,000 cells per well were used in this assay. Test compounds (10 mM in DMSO) were diluted into PBS containing 0.1% BSA in Beckman Biomek-2000 and tested at 11 different concentrations ranging from 100 μM to 1 pM.

[3] = target: T1, human β2 adrenergic receptor; test: Whole-cell cAMP Flashplate assay with lung epithelial cell line (BEAS-2B) endogenously expressing human β2 adrenergic receptor; type: cell-based; details: BEAS-2B cells

T1 sequence (P07550 whole entry): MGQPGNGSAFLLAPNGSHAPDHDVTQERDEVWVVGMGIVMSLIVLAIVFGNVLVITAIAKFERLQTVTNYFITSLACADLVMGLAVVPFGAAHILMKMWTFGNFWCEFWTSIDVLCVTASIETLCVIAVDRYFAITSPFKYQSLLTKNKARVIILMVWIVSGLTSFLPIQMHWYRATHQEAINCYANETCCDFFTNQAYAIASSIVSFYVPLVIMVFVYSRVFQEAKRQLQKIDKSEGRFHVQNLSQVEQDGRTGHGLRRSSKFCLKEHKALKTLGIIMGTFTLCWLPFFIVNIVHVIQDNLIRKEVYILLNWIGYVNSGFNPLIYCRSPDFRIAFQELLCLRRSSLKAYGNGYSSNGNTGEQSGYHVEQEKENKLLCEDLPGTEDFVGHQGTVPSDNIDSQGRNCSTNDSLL

O=C(CCN1CCC(OC(=O)Nc2ccccc2-c2ccccc2)CC1)NCCCCCNC[C@H](O)c1ccc(O)c2[nH]c(=O)ccc12 [Example 6, Biphenyl-2-ylcarbamic Acid 1-(2-{5-[(R)-2-Hydroxy-2-(8-hydroxy-2-oxo-1,2-dihydroquinolin-5-yl)ethylamino]pentylcarbamoyl}ethyl)piperidin-4-yl Ester, Ditrifluoroacetate]
< 0.01 µM: Ki [1] | Ki (M3 muscarinic receptor) | EC50 [2] | EC50 [3]
